Values quoted from earlier work in patent US12544384B2, “Antibiotic conjugates” (priority 2018, dated 2026).

Tested on: Mycobacterium tuberculosis (Mtb)
Conditions: background statement; cited from earlier work

C[C@@H]1CC[C@H]2[C@@H](C)C(=O)O[C@@H]3O[C@@]4(C)CC[C@@H]1[C@]32OO4 [artemisinin]
Anti-tuberculosis activity (in words): no anti-tuberculosis activity
